Results: patent US6503940B2, “Prodrugs for antimicrobial amidines” (The University of North Carolina at Chapel Hill, priority 1999, dated 2003)

What was measured:
Pneumocystis carinii [1] = experiment: Anti-Pneumocystis carinii pneumonia activity in immunosuppressed rat model; type: in vivo
Description: (§1) In the examples which follow, melting points were recorded using a Thomas-Hoover (Uni-Melt) capillary melting point apparatus and were uncorrected. TLC analysis was carried out on silica gel 60 F254 pre-coated aluminum sheets (0.20 mm layer thickness) (E. Merck of Whitehouse Station, N.J.) and detected under UV light. IR spectra were recorded using Perkin-Elmer Model 337 spectrometer sold by Perkin-Elmer of Norwalk, Conn. ^1H and ^13C NMR spectra were recorded employing a Varian GX400 or a Varian Unityplus 300 spectrometer (both sold by Varian of Palo Alto, Calif.) and chemical shifts (δ) are in ppm relative to TMS as internal standard. Mass Spectra were recorded on a VG Analytical 70-SE spectrometer (Georgia Institute of Technology, Atlanta, Ga.). IR spectra were recorded using a Perkin-Elmer 2000 instrument. […] All chloroformates were purchased from Aldrich Chemical Co. of St. Louis, Mo. Other chemicals and solvents were purchased from either Aldrich or Fischer Scientific of Houston, Tex. […] See Baijic, M., et al., Heterocycl. Commun., 1996, 2, pp. 135-140; Das, B. P., J. Med. Chem. 1977, 20, pp. 531-536; and Boykin, D. W., et al., Bioorg. Med. Chem Lett., 1996, 6, pp. 3017-3020. Anti-Pneumocystis carinii pneumonia activity screening was carried out according to published methods. See Jones, S. K. et al., Antimicrob. Agents Chemother., 1990, 34, pp. 1026-1030; Hall, J. E., et al., Antimicrob. Agents Chemother., 1998, 42, pp. 666-674; and Tidwell, R. R., et al., J. Med. Chem., 1990, 33, pp. 1252-1257. Compounds were routinely tested orally at 33 μmol/kg/day and intravenously at 22 μmol/kg/day. Saline- and pentamidine treated groups of rats were included as negative and positive controls, respectively.

[2] = Toxicity observed in rats of the anti-PCP screening; conditions: rat
Description: as §1

Pneumocystis carinii [3] = experiment: Anti-Pneumocystis carinii pneumonia activity in immunosuppressed rat model; type: in vivo; remark: listed apart in the source

Row | Compound | Cysts/g of lung (% of control) (Pneumocystis carinii [1]; Oral @ 33.0 μmol/kg/day) | Cysts/g of lung (% of control) (Pneumocystis carinii [1]; iv @ 22.0 μmol/kg/day) | Toxicity ([2]; Oral @ 33.0 μmol/kg/day) | Toxicity ([2]; iv @ 22.0 μmol/kg/day) | also measured
1 | 2,5-bis[4-(N-2,2,2-trichloroethoxycarbonyl)amidinophenyl]furan [Compound 3] | 8.59 ± 9.14 % of control | 1.85 ± 1.79 % of control | 0 | 0 | 
2 | [H]/N=C(\N)c1ccc(-c2ccc(-c3ccc(/C(N)=N/[H])cc3)o2)cc1 [Compound 1, 2,5-Bis(4-amidinophenyl)furan, reference compound] |  |  |  |  | Cysts/g of lung (% of control) (Pneumocystis carinii [3]; Oral @ 39.8 μmol/kg/day): 44.52 ± 13.30 % of control; Cysts/g of lung (% of control) (Pneumocystis carinii [3]; iv @ 13.3 μmol/kg/day): 0.83 ± 0.36 % of control; Toxicity ([2]; Oral @ 39.8 μmol/kg/day): 0; Toxicity ([2]; iv @ 13.3 μmol/kg/day): 0
3 | COC(=O)NC(=N)c1ccc(-c2ccc(-c3ccc(C(=N)NC(=O)OC)cc3)o2)cc1 [Compound 2, 2,5-Bis[4-(N-methoxycarbonyl)amidinophenyl]furan] | 49.68 ± 20.50 % of control | 6.91 ± 6.01 % of control | 0 | 0 | 
4 | CCSC(=O)N=C(N)c1ccc(-c2ccc(-c3ccc(C(N)=NC(=O)SCC)cc3)o2)cc1 [Compound 4, 2,5-bis[4-(N-thioethylcarbonyl)amidinophenyl]furan] | 19.52 ± 14.22 % of control | 83.01 ± 43.65 % of control | 0 | 0 | 
5 | NC(=NC(=O)OCc1ccccc1)c1ccc(-c2ccc(-c3ccc(C(N)=NC(=O)OCc4ccccc4)cc3)o2)cc1 [Compound 5, 2,5-bis[4-(N-benzyloxycarbonyl)amidinophenyl]furan] | 18.09 ± 9.16 % of control |  |  |  | Cysts/g of lung (% of control) (Pneumocystis carinii [3]; iv @ 11.0 μmol/kg/day): 0.03 ± 0.02 % of control
6 | Cc1oc(=O)oc1COC(=O)N=C(N)c1ccc(-c2ccc(-c3ccc(C(N)=NC(=O)OCc4oc(=O)oc4C)cc3)o2)cc1 [Compound 6, 2,5-bis{4-[N-(5-methyl-2-oxo-1,3-dioxol-4-ene-1-yl)methoxycarbonyl]amidinophenyl}furan] | 18.73 ± 11.87 % of control | 0.02 ± 0.01 % of control | 0 | 0 | 
7 | NC(=NC(=O)Oc1ccccc1)c1ccc(-c2ccc(-c3ccc(C(N)=NC(=O)Oc4ccccc4)cc3)o2)cc1 [Compound 7, 2,5-Bis[4-(N-phenoxycarbonyl)amidinophenyl]furan] | 5.70 ± 5.15 % of control | 3.61 ± 1.80 % of control | 0 | 0 | 
8 | NC(=NC(=O)Oc1ccc(F)cc1)c1ccc(-c2ccc(-c3ccc(C(N)=NC(=O)Oc4ccc(F)cc4)cc3)o2)cc1 [Compound 8, 2,5-bis[4-(N-(4-fluoro)phenoxycarbonyl)amidinophenyl]furan] | 2.21 ± 0.33 % of control | 0.02 ± 0.01 % of control | 0 | 0 | 
9 | COc1ccc(OC(=O)N=C(N)c2ccc(-c3ccc(-c4ccc(C(N)=NC(=O)Oc5ccc(OC)cc5)cc4)o3)cc2)cc1 [Compound 9, 2,5-bis[4-(N-(4-methoxy)phenoxycarbonyl)amidinophenyl]furan] | 2.10 ± 2.08 % of control | 0.02 ± 0.01 % of control | 0 | 0 | 
10 | CC(=O)OC(C)OC(=O)NC(=N)c1ccc(-c2ccc(-c3ccc(C(=N)NC(=O)OC(C)OC(C)=O)cc3)o2)cc1 (stereo not drawn) [Compound 10, 2,5-bis[4(1-Acetoxyethoxycarbonyl)amidinophenyl]furan] | 57.16 ± 10.19 % of control |  | 0 |  | Cysts/g of lung (% of control) (Pneumocystis carinii [3]; iv @ 11.0 μmol/kg/day): 1.21 ± 1.02 % of control
11 | CCOC(=O)ON=C(N)c1ccc(-c2ccc(-c3ccc(C(N)=NOC(=O)OCC)cc3)o2)cc1 [Compound 11, 2,5-bis[4(N-ethoxycarbonyloxy)amidinophenyl]furan] | 96.90 ± 48.48 % of control |  | 0 |  | Cysts/g of lung (% of control) (Pneumocystis carinii [3]; iv @ 34.7 μmol/kg/day): 1.66 ± 0.58 % of control; Toxicity ([2]; iv @ 34.7 μmol/kg/day): 0
12 | N=C(N)c1ccc(OCCCCCOc2ccc(C(=N)N)cc2)cc1 [Pentamidine, 1,5-bis(4-amidinophenoxy)pentane, reference compound] |  | 3.06 ± 0.90 % of control |  |  | 
